Laboratory results reported in patent publication US20170232083A1, “METHODS OF DIAGNOSIS AND TREATMENT OF CELIAC DISEASE IN CHILDREN” (priority 2014, published 2017).

Test system: PBMC (polyclonal gluten-specific T cells) of paediatric and adult CD patients
Assay: IFN-γ ELISpot of PBMC after 3 day oral wheat challenge (SFU, % of maximal peptide response, dominance scores, EC50; Examples 5-6)
Assay type: cell-based, human
Conditions: for IFN-γ ELISpot response: after oral wheat challenge
[1] = patient A, 11-17 yrs, cut-off 10 SFU
[2] = patient E, H, 11-17 yrs, cut-off 10 SFU
[3] = patient F, 11-17 yrs, cut-off 10 SFU
[4] = patient G, 11-17 yrs, cut-off 10 SFU
[5] = patient H (HLA-DQ2.5 homozygote), 3-5yrs, cut-off 10 SFU
[6] = patient H, 11-17 yrs, cut-off 10 SFU
[7] = patient ID not given, 11-17 yrs, cut-off 10 SFU
[8] = patient N, 3-5yrs, cut-off 10 SFU
[9] = patient P, 11-17 yrs, cut-off 21.6 SFU
[10] = patient Q, 11-17 yrs, cut-off 10 SFU
[11] = patient U, H, 11-17 yrs, cut-off 10 SFU
[12] = patient V, 6-10 yrs, cut-off 10 SFU
[13] = patient Y, 6-10 yrs, cut-off 10 SFU
[14] = patient eleven, 6-10 yrs, cut-off 10 SFU
[15] = patient four, 3-5yrs, cut-off 10 SFU
[16] = patient seven, 6-10 yrs, cut-off 10.5 SFU
[17] = patient seven, max peptide 27 SFU
[18] = patient ten, 3-5yrs, cut-off 10 SFU
[19] = patient three, 6-10 yrs, cut-off 10.5 SFU
[20] = patient twelve, 11-17 yrs, cut-off 10 SFU
[21] = patient two, 3-5yrs, cut-off 10 SFU
[22] = patient ID not given, max peptide 95 SFU
[23] = patient five, max peptide 48 SFU
[24] = patient four, max peptide 44 SFU
[25] = patient two, max peptide 60 SFU

Substance	IFN-γ ELISpot response [1]	IFN-γ ELISpot response [2]	IFN-γ ELISpot response [3]	IFN-γ ELISpot response [4]	IFN-γ ELISpot response [5]	IFN-γ ELISpot response [6]	IFN-γ ELISpot response [7]	IFN-γ ELISpot response [8]	IFN-γ ELISpot response [9]	IFN-γ ELISpot response [10]	IFN-γ ELISpot response [11]	IFN-γ ELISpot response [12]	IFN-γ ELISpot response [13]	IFN-γ ELISpot response [14]	IFN-γ ELISpot response [15]	IFN-γ ELISpot response [16]	IFN-γ ELISpot response [18]	IFN-γ ELISpot response [19]	IFN-γ ELISpot response [20]	IFN-γ ELISpot response [21]	also measured
GLERPWQEQPLPPQ	4 SFU	0 SFU	0 SFU	0 SFU	0 SFU	16 SFU	1 SFU	0 SFU	7 SFU	22 SFU	1 SFU	7 SFU	9 SFU	1 SFU	6 SFU	11 SFU	5 SFU	3 SFU	2 SFU	1 SFU	Significant response as percentage of maximal peptide SFU (patient H, max peptide 17 SFU): + (>70% = +); Significant response as percentage of maximal peptide SFU (patient Q, max peptide 97 SFU): ′′ (21-40% = ′′); Significant response as percentage of maximal peptide SFU [17]: ′′′ (41-70% = ′′′)
PFPQQPQQPFPQP	0 SFU	0 SFU	1 SFU	0 SFU	4 SFU	2 SFU	0 SFU	2 SFU	14 SFU	9 SFU	2 SFU	3 SFU	6 SFU	3 SFU	0 SFU	1 SFU	12 SFU	5 SFU	2 SFU	3 SFU	Significant response as percentage of maximal peptide SFU (patient ten, max peptide 14.5 SFU): + (>70% = +)
LPYPQPQLPYPQP	3 SFU	61 SFU	120 SFU	2 SFU	13 SFU	13 SFU	49 SFU	3 SFU	17 SFU	53 SFU	25 SFU	18 SFU	16 SFU	25 SFU	22 SFU	8 SFU	7 SFU	75 SFU	5 SFU	14 SFU	Significant response as percentage of maximal peptide SFU (patient E, max peptide 224 SFU): ′′ (21-40% = ′′); Significant response as percentage of maximal peptide SFU (patient F, max peptide 178 SFU): ′′′ (41-70% = ′′′); Significant response as percentage of maximal peptide SFU (patient H, max peptide 17 SFU): + (>70% = +); Significant response as percentage of maximal peptide SFU [22]: ′′′ (41-70% = ′′′); Significant response as percentage of maximal peptide SFU (patient II, max peptide 15 SFU): + (>70% = +); Significant response as percentage of maximal peptide SFU (patient J, max peptide 196 SFU): ′′ (21-40% = ′′); Significant response as percentage of maximal peptide SFU (patient K, max peptide 53 SFU): ′′ (21-40% = ′′); Significant response as percentage of maximal peptide SFU (patient M, max peptide 48 SFU): ′′ (21-40% = ′′); Significant response as percentage of maximal peptide SFU (patient Q, max peptide 97 SFU): ′′′ (41-70% = ′′′); Significant response as percentage of maximal peptide SFU (patient U, max peptide 81 SFU): ′′ (21-40% = ′′); Significant response as percentage of maximal peptide SFU (patient V, max peptide 35 SFU): ′′′ (41-70% = ′′′); Significant response as percentage of maximal peptide SFU (patient Y, max peptide 16 SFU): + (>70% = +); Significant response as percentage of maximal peptide SFU (patient eleven, max peptide 57 SFU): ′′′ (41-70% = ′′′); Significant response as percentage of maximal peptide SFU [23]: ′′ (21-40% = ′′); Significant response as percentage of maximal peptide SFU [24]: ′′′ (41-70% = ′′′); Significant response as percentage of maximal peptide SFU [25]: ′′ (21-40% = ′′)
PFPLQPEQPFPQP	6 SFU	30 SFU	35 SFU	2 SFU	24 SFU	11 SFU	28 SFU	7 SFU	27 SFU	43 SFU	23 SFU	21 SFU	9 SFU	8 SFU	22 SFU	27 SFU	8 SFU	52 SFU	15 SFU	24 SFU	Significant response as percentage of maximal peptide SFU (patient D, max peptide 30.5 SFU): ′′′ (41-70% = ′′′); Significant response as percentage of maximal peptide SFU (patient E, max peptide 224 SFU): ′ (11-20% = ′); Significant response as percentage of maximal peptide SFU (patient F, max peptide 178 SFU): ′ (11-20% = ′); Significant response as percentage of maximal peptide SFU (patient H, max peptide 17 SFU): ′′′ (41-70% = ′′′); Significant response as percentage of maximal peptide SFU [22]: ′′ (21-40% = ′′); Significant response as percentage of maximal peptide SFU (patient II, max peptide 15 SFU): + (>70% = +); Significant response as percentage of maximal peptide SFU (patient J, max peptide 196 SFU): ′′ (21-40% = ′′); Significant response as percentage of maximal peptide SFU (patient K, max peptide 53 SFU): ′′′ (41-70% = ′′′); Significant response as percentage of maximal peptide SFU (patient M, max peptide 48 SFU): ′′′ (41-70% = ′′′); Significant response as percentage of maximal peptide SFU (patient P, max peptide 64 SFU): ′′′ (41-70% = ′′′); Significant response as percentage of maximal peptide SFU (patient Q, max peptide 97 SFU): ′′′ (41-70% = ′′′); Significant response as percentage of maximal peptide SFU (patient U, max peptide 81 SFU): ′′ (21-40% = ′′); Significant response as percentage of maximal peptide SFU (patient V, max peptide 35 SFU): ′′′ (41-70% = ′′′); Significant response as percentage of maximal peptide SFU (patient W, max peptide 30 SFU): + (>70% = +); Significant response as percentage of maximal peptide SFU (patient eight, max peptide 12 SFU): + (>70% = +); Significant response as percentage of maximal peptide SFU [23]: + (>70% = +); Significant response as percentage of maximal peptide SFU [24]: ′′′ (41-70% = ′′′); Significant response as percentage of maximal peptide SFU [17]: + (>70% = +); Significant response as percentage of maximal peptide SFU [25]: ′′ (21-40% = ′′)
W09 (PQPFLPELPYPQP) [Peptide W09]	–	–	–	–	–	–	–	–	–	–	–	–	–	–	–	–	–	–	–	–	Dominance score 3-5yrs (n = 9) (CD children 3-5yrs, n = 9, following wheat challenge, mean percentage of maximal peptide response): 30.7; Dominance score 6-10yrs (n = 10) (CD children 6-10yrs, n = 10, following wheat challenge, mean percentage of maximal peptide response): 28.6; Dominance score 11-18yrs (n = 11) (CD children 11-18yrs, n = 11, following wheat challenge, mean percentage of maximal peptide response): 19.1; Dominance score Mean all ages (CD children, all ages, following wheat challenge (Table 9)): 25.2
QPFPQPQQPFSQQ	9 SFU	16 SFU	12 SFU	1 SFU	13 SFU	2 SFU	30 SFU	3 SFU	10 SFU	28 SFU	22 SFU	5 SFU	6 SFU	1 SFU	12 SFU	6 SFU	3 SFU	13 SFU	9 SFU	9 SFU	Significant response as percentage of maximal peptide SFU (patient E, max peptide 224 SFU): (6-10% = ^); Significant response as percentage of maximal peptide SFU (patient F, max peptide 178 SFU): (6-10% = ^); Significant response as percentage of maximal peptide SFU [22]: ′′ (21-40% = ′′); Significant response as percentage of maximal peptide SFU (patient II, max peptide 15 SFU): + (>70% = +); Significant response as percentage of maximal peptide SFU (patient J, max peptide 196 SFU): (6-10% = ^); Significant response as percentage of maximal peptide SFU (patient K, max peptide 53 SFU): ′′ (21-40% = ′′); Significant response as percentage of maximal peptide SFU (patient M, max peptide 48 SFU): ′′ (21-40% = ′′); Significant response as percentage of maximal peptide SFU (patient Q, max peptide 97 SFU): ′′ (21-40% = ′′); Significant response as percentage of maximal peptide SFU (patient U, max peptide 81 SFU): ′′ (21-40% = ′′); Significant response as percentage of maximal peptide SFU [23]: ′′ (21-40% = ′′); Significant response as percentage of maximal peptide SFU [24]: ′′ (21-40% = ′′)
YEVIRSLVLRTLPN	20 SFU	1 SFU	2 SFU	1 SFU	0 SFU	3 SFU	1 SFU	2 SFU	49 SFU	2 SFU	3 SFU	3 SFU	1 SFU	1 SFU	1 SFU	10 SFU	3 SFU	4 SFU	0 SFU	1 SFU	Significant response as percentage of maximal peptide SFU (patient A, max peptide 20 SFU): + (>70% = +); Significant response as percentage of maximal peptide SFU (patient P, max peptide 64 SFU): + (>70% = +); Significant response as percentage of maximal peptide SFU (patient W, max peptide 30 SFU): + (>70% = +)
